Test results: patent publication US20240208998A1, “COMPOUNDS FOR USE IN THE TREATMENT OF HYPERPROLIFERATIVE DISORDERS” (FUNDACIÓ PRIVADA INSTITUT D'INVESTIGACIÓ ONCOLÓGICA DE VALL …, priority 2021, published 2024)

What was measured:
HL60 cell line = assay: Antiproliferative activity on HL60 cell line (CellTiter-Glo); assay type: cell-based; details: Homo sapiens, HL-60; HL60, 72 h of treatment
Method: The human leukaemic cell line HL60 was grown in suspension in RPMI 1640 medium containing 10% (v/v) FBS and 1% (v/v) P/S (Life Technologies). […] Leukaemia cells were suspended at a density of 2×10^5 cells/mL in complete RPMI 1640 medium and 25 μL were seeded in each well (5×10^3 final total cells/well). A 10 μM solution of the compounds of examples 1, 12 and 21, and a 25 μM solution of all other compounds were prepared in complete medium, and then serially diluted (1:2) (as specified in Table 3 below). A solution of complete medium with DMSO was used as a vehicle control.
Twenty-five microliters of each serially diluted compound solution were added to the corresponding wells of the plate (50 μL of final volume/well). After 48 h of treatment, 50 μL of fresh 2X serially diluted compound solution was added to their corresponding wells (100 μL of final volume/well). After twenty-four additional hours, an equal volume (100 μL) of CellTiter-Glo Reagent (Promega) was added to each well, plates were shaken during 2 min and incubated at rt for 10 min. Luminescence was recorded using a Spark multimode microplate reader and an integration time of 1 s per well.

T98G (glioblastoma) = assay: Antiproliferative activity on other tumour cell lines (CellTiter-Glo): T98G; assay type: cell-based; details: Homo sapiens, 72 h of treatment
Method: (§1) Other human adherent cancer cell lines were cultured in their corresponding cell medium (as specified in Table 4) supplemented with 10% FBS (v/v) and 1% P/S (v/v). Twenty-four hours prior to treatment with the compounds to be tested (Examples 1, 12 and 21), the cells were seeded in 96-well plates at different densities depending of the cell line (as specified in Table 4).
(§2) Depending on the cell line, a 50, 125 or 250 μM solution of the compounds of examples 1, 12 and 21 were prepared in complete medium, and then serially diluted (1:2) (Table 5). A solution of complete medium with DMSO was used as a vehicle control.
(§3) Fifty microliters of each serially diluted compound solution was added by medium replacement in two wells (by duplicate). After 48 h of treatment, 50 μL of fresh 2X serially diluted compound solution was added to the corresponding wells of the plate (100 μL of final volume/well). After twenty-four additional hours (a total of 72 h of treatment), an equal volume (100 μL) of CellTiter-Glo Reagent (Promega) was added to each well, plates were shaken during 2 min and incubated at rt for 10 min. Luminescence was recorded using a Spark multimode microplate reader and an integration time of 1 s per well.

LN229 (glioblastoma) = assay: Antiproliferative activity on other tumour cell lines (CellTiter-Glo): LN229; assay type: cell-based; details: Homo sapiens, LN-229; LN229, 72 h of treatment
Method: as §1, §2, §3

MCF7 (breast) = assay: Antiproliferative activity on other tumour cell lines (CellTiter-Glo): MCF7; assay type: cell-based; details: Homo sapiens; MCF7, 72 h of treatment
Method: as §1, §2, §3

A375 (melanoma) = assay: Antiproliferative activity on other tumour cell lines (CellTiter-Glo): A375; assay type: cell-based; details: Homo sapiens, A-375; A375, 72 h of treatment
Method: as §1, §2, §3

HCT116 (colon) = assay: Antiproliferative activity on other tumour cell lines (CellTiter-Glo): HCT116; assay type: cell-based; details: Homo sapiens; HCT 116, 72 h of treatment
Method: as §1, §2, §3

human TET2 construct = human TET2 construct (Homo sapiens, UniProt Q6N021, A1837G/A1840G/D1704G/D1842G/DEL1471-1702/DEL1708-1833/E1841G/F1706G/N1843S/Q1834G/V1836G); assay: Determination of TET2 binding by Surface Plasmon Resonance; details: SPR, Biacore T200, 25° C., steady state fit to single site interaction model
Method: The human methylcytosine dioxygenase TET2 construct used (1129-2002 with residues 1471-1843 replaced by a 15-residue GS-linker) was expressed in a pET-28a(+)psumo vector with kanamycin resistance and an N-terminal His6 tag, and cloned in Rosetta D3 Escherichia coli competent cells. Transformed cells were cultured overnight in 10 mL of LB media supplied with kanamycin (50 μg/mL), then scaled to 1 L LB medium supplied with kanamycin (50 μg/mL) and grown at 37° C. Once the optical density (OD600) achieved 0.8, protein expression was induced with 0.4 mM isopropyl-β-thiogalactopyranoside (IPTG) overnight at 18° C. Cells were harvested by centrifugation (8,000 rpm, 4° C., 30 min) and the pellet obtained was resuspended in 15 mL of buffer A (50 mM Hepes, 150 mM NaCl, 30 mM imidazole, 2 mM β-mercaptoethanol (pH 8.0) supplemented with Pierce protease inhibitor cocktail (ThermoFisher Scientific)) and lysed by sonication (1 min 40 s: 10 cycles×10 s ON, 30 s OFF, A=35%, T=19° C.) followed by two consecutive centrifugations (8,000 rpm, 4° C., 30 min) to clarify the lysate.
The TET2 protein was purified using an AKTA Start system (GE Healthcare, Uppsala, Sweden) by two-step purification procedure: one His-affinity chromatography followed by a size exclusion chromatography. First, the protein fraction obtained during the lysis (supernatant) was applied to a 5 mL HisTrap HP column (GE Healthcare), washed with buffer A (50 mM Hepes, 150 mM NaCl, 30 mM imidazole, 2 mM […] (pH 8.0)) and the bound protein was eluted with buffer B (50 mM Hepes, 150 mM NaCl, 250 mM imidazole, 2 mM β-mercaptoethanol (pH 8.0)). The eluted protein-containing fractions were pooled and concentrated up to 4 mL for the last purification step: a size exclusion chromatography (HiPrep 16/60 Sephacryl S-100 HR) in 50 mM Hepes, 150 mM NaCl, 2 mM β-mercaptoethanol (pH 8.0). Finally, the mass and purity of the protein were verified by SDS-electrophoresis and mass spectrometry.
The binding of compounds of the examples was determined by Surface Plasmon Resonance (SPR) using a Biacore T200 SPR biosensor instrument (GE Healthcare, Uppsala, Sweden) at 25° C. The human TET2 construct was immobilized on a CM5 sensor chip using a standard covalent immobilization via amine coupling following the activation of the carboxymethyl dextran matrix of the sensor chip (injection of a solution containing 0.1 M N-hydroxysuccinimide and 0.4 M 1-ethyl-3-[3-(dimethylamino)propyl]carbodiimide hydrochloride at a flow rate of 15 μL/min for 7 min). The protein immobilization was achieved after the injection of 5 μg/mL TET2 in 10 mM sodium acetate (pH 4.0) at a flow rate of 5 μL/min. Unreacted activated groups of the dextran matrix were deactivated by injection of 1 M ethanolamine hydrochloride for 7 min at a flow rate of 15 μL/min. The corresponding matrix activation and protein immobilization were performed using as a running buffer a phosphate buffered saline solution (1.05× PBS: 10 mM phosphate, pH 7.4, 150 mM NaCl). The screened compounds were prepared in a 20 mM stock solution in DMSO and diluted with 1.05× PBS to achieve a final 5% (v/v) DMSO concentration. The running buffer of the interaction assays consisted of 1×PBS, 5% (v/v) DMSO. The flow rate used for the screening was 60 μL/min and the ligand association and dissociation times set were 60 s and 120 s, respectively.
For data analysis the software used was the Biacore T200 Evaluation software. Different corrections were applied. First, the nonspecific binding to the chip surface and the baseline drift were corrected subtracting the signals of a reference surface (where the immobilization procedure was carried out without proteins) to the signals obtained on the TET2 surface. Second, a series of solvent standards (solvent correction) were introduced to remove the differences derived from the DMSO. Finally, the background was corrected subtracting blank injections (blank subtraction) to the injected compound signals.

MDA-MB-468 (breast) = assay: Antiproliferative activity on other tumour cell lines (CellTiter-Glo): MDA-MB-468; assay type: cell-based; details: Homo sapiens, MD-MB-468, 72 h of treatment
Method: as §1, §2, §3

Hop62 (lung) = assay: Antiproliferative activity on other tumour cell lines (CellTiter-Glo): Hop62; assay type: cell-based; details: Homo sapiens, HOP-62; Hop62, 72 h of treatment
Method: as §1, §2, §3

Row | EC50 (HL60 cell line) | EC50 (T98G (glioblastoma)) | EC50 (LN229 (glioblastoma)) | EC50 (MCF7 (breast)) | EC50 (A375 (melanoma)) | EC50 (HCT116 (colon)) | Kd (human TET2 construct) | melting point | EC50 (MDA-MB-468 (breast)) | EC50 (Hop62 (lung)) | Structure (SMILES)
1 | 0.113 µM | 73.7 µM | 3.3 µM | 14.6 µM | 1.4 µM | 12.1 µM | 16 µM | 210 to 212 °C | 16 µM | 40.1 µM | Cc1[nH]c2ccccc2c1-c1csc(NC(=O)Cc2cn3ccsc3n2)n1 [Example 1, 2-(imidazo[2,1-b]thiazol-6-yl)-N-[4-(2-methyl-1H-indol-3-yl)thiazol-2-yl]acetamide]
2 | 20.2 µM | – | – | – | – | – | 11 µM | 85 to 88 °C | – | – | Cc1[nH]c2ccccc2c1-c1csc(N(C)C(=O)C(C)c2cn3ccsc3n2)n1 (stereo not shown) [Example 15, 2-(imidazo[2,1-b]thiazol-6-yl)-N-methyl-N-[4-(2-methyl-1H-indol-3-yl)thiazol-2-yl]propanamide]
